Assays:
[1] = tested on: mitochondria in peripheral sensory afferents (PNSAs); assay: Mitochondrial ATP production in peripheral sensory afferents after in vivo treatment; design: species or system rat; settings: 0.1 mg/kg/d i.p. concomitant with oxaliplatin
Method: ATP assays. Saphenous nerves were harvested from rats 25 days after the initiation of chemotherapy treatments, then minced & teased apart as previously described. Saphenous nerve explants were transferred to MiR05 respiratory buffer & baseline ATP samples were taken after 5 min or after 15 min treatment with MRS5980 or vehicle. ADP (1 mM), glutamate (5 mM), succinate (5 mM), maleate (5 mM) were added for 5 min & samples were taken for ATP. ATP levels were measured by a flash luciferin-luciferase assay (Promega Enliten ATP Assay; Promega, Madison, Wis.) & normalized to citrate synthase activity (Sigma, St Louis, Mo.) in explants homogenates.

[2] = tested on: intraepidermal nerve fibers (IENFs); assay: Incidence of intraepidermal nerve fibers (IENFs) in chemotherapy-treated rats; settings: p<0.05
[3] = Oxaliplatin-induced mechano-hypersensitivity (paw withdrawal threshold, von Frey); assay type: in vivo, rat; settings: 0.1 mg/kg/d i.p. concomitant with oxaliplatin
From the text: Mean±SEM, n=6/group, ANOVA with Bonferroni comparisons. *P<0.05 vs. day 0; #P<0.05 vs. vehicle &†P<0.05 vs. Oxaliplatin.

## CNC(=O)[C@@]12C[C@@H]1[C@@H](n1cnc3c(NCc4cccc(Cl)c4)nc(C#Cc4ccc(F)c(F)c4)nc31)[C@H](O)[C@@H]2O [MRS5698]
[1]
  Mitochondrial ATP production in PNSAs: prevents the deficiencies in mitochondrial ATP production
[2]; rats treated with oxaliplatin+MRS5698
  Incidence of IENFs vs. oxaliplatin alone: significantly more IENFs
[2]; rats treated with paclitaxel+MRS5698
  Incidence of IENFs vs. paclitaxel alone: significantly more IENFs
[3]
  Development of mechano-hypersensitivity (Paw Withdrawal Threshold): prevents

Source: patent publication US20190343860A1 (Saint Louis University, priority 2016, published 2019)
